# According to patent US11491132B2, “Methods for treating thrombocytopenia” (Enzychem Lifesciences Corporation, priority 2014, dated 2022):
# What was measured:
# [1] = system: PKCθ/p38 MAPK/ERK pathway; assay: Dephosphorylation of p38 MAPK and ERK1/2 in PLAG-treated RBL-2H3 cells, western blot; assay type: cell-based; settings: PLAG pre-incubated RBL-2H3 cells, IgE-antigen complex stimulation
# Experimental: Dephosphorylation of p38 MAPK and ERK1/2 in PLAG-treated RBL-2H3 cells is determined by western blot analysis using anti-phospho-p38 and anti-phospho-ERK1/2 respectively. To activate the p38 and ERK1/2 in RBL-2H3 cells, the cells are sensitized with 50 ng/mL of anti-DNP-IgE overnight. After washing with PBS three times, 20 ng/ml of DNP-HSA is added. Each cell lysate for western blot is prepared in the PLAG-treated RBL-2H3 cells in a dose-dependent manner and incubated for the same time (15 min). β-actin is used as internal controls. ERK1/2 and p38 phosphorylation start immediately after IgE-antigen complex stimulation and remain sufficiently activated for 5 min.
# C3 = C3 inhibition by PLAG in HMC-1, ELISA; assay type: cell-based, human; settings: HMC-1 cells, PLAG 1, 10 and 100 μg/mL for 2 hours, activated 72 hours
# Experimental: In a separate experiment, human mast cells (HMC-1, 1×10^5 cell/ml) are treated with PLAG of various concentrations (1, 10 and 100 μg/mL) for 2 hours. The cells are activated for 72 hours with 10% FBS (Fetal bovine serum) containing IMDM. The decrease of C3 is confirmed by ELISA analysis of the expressed protein.
# platelets = assay: Phenylhydrazine-induced platelet reduction in mice; assay type: in vivo; settings: PHZ 100 mg/kg i.p., PLAG 5 mg/kg orally
# Experimental: To evaluate the effect of PLAG on the concentration of platelets mice are treated with compounds which would be expected to cause reductions in platelet numbers, specifically phenylhydrazine, tamoxifen or lipopolysaccharide.
# Mice are injected with 100 mg/kg phenylhydrazine (PHZ), i.p., to induce anemia and reduction of platelets. 5 mg/kg PLAG is administered to the mice orally and blood samples are taken at 3 and 13 days after. In addition, for comparison, normal mice which are not treated with phenylhydrazine are prepared as a normal group, and mice treated with PHZ and olive oil instead of PLAG are prepared as a control group. The blood samples taken from the mice are treated with 0.5 ml EDTA (Minicollect tube, Greiner bio-one, Austria) and concentration of platelet is measured using automated blood sample analyzer BC-6800 (Mindray, Shenzhen, China) by number of platelet per […] (k: 1,000).
# STAT1 [2] = biological target: T1, STAT1 (Homo sapiens, UniProt P42224); assay: Dephosphorylation of STAT1 in U937 cell lysate, western blot; assay type: cell-based; design: endogenous in cells; host or cells: U937; settings: U937 cells; PLAG 0.01 to 10 μg/ml; 15 min after 10 ng IFN-γ
# T1 sequence (P42224 1-750): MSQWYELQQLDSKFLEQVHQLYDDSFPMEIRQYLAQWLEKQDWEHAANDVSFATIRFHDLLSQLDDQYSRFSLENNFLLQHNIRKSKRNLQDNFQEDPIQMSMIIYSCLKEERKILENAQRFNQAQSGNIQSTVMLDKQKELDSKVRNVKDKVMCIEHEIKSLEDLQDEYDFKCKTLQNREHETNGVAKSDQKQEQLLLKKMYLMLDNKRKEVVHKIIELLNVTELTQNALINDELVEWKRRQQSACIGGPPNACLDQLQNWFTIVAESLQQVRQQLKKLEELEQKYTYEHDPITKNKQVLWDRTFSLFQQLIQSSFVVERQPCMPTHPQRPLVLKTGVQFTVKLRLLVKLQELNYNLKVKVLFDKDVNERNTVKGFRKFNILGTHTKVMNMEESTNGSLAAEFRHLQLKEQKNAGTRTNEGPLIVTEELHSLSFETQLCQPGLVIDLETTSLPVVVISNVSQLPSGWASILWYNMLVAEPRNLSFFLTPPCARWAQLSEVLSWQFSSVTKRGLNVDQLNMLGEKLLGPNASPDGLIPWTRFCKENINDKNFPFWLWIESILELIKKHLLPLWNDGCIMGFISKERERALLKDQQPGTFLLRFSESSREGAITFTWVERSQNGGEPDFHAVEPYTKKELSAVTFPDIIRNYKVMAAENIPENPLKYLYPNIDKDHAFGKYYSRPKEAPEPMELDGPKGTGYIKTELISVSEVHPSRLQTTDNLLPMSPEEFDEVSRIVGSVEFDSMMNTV
# Experimental: Dephosphorylation of STAT6 is examined using anti-phosphorylated STAT6 in U937, A549, and Jurkat cell lysates treated with PLAG concentration from 0.01 to 10 μg/ml. Phosphorylation of STAT6 is induced by treatment with 10 ng/ml of IL-4. Dephosphorylation of STAT1 is examined in the U937 cell lysate treated with PLAG (0.01 to 10 μg/ml). Phosphorylation of STAT1 is induced by 10 ng of IFN-γ treatment. Dephosphorylation of STAT1 and STAT6 is examined at 15 min after stimulation with IFN-γ and IL-4 respectively, in the PLAG pretreated cells. […] The transcriptional activity of STAT6 is decreased by the dephosphorylation of STAT6. […] No effect of PLAG on STAT1 phosphorylation is observed.
# STAT1 [3] = biological target: T1, STAT1; assay: Reporter assay for STAT1 transcriptional activity in HepG2 cells; assay type: cell-based; design: For the STAT1 assay, gene transfected HepG2 (human hepatocyte cell line) is treated with 10 ng of IFN-γ; endogenous in cells; host or cells: HepG2 (gene transfected); settings: gene transfected HepG2, 10 ng IFN-γ, PLAG 0.01-10 μg/ml, 12 hours incubation
# Experimental: By using STAT6 inhibitor (S6I), it is confirmed that the reduction of Complement 3 in HepG2 cells (human hepatocyte cell line) is regulated by STAT6. […] It is also confirmed that PLAG has selective efficacy on STAT6 over STAT1. FIG. 1 presents graphs showing STAT1 and STAT6 transcriptional activity in the PLAG treated HepG2 cells. NC refers to the unstimulated control cell. For the STAT1 assay, gene transfected HepG2 (human hepatocyte cell line) is treated with 10 ng of IFN-γ and serially diluted PLAG is added (0.01 μg/ml, 0.1 μg/ml, 1 μg/ml, and 10 μg/ml as shown) to see its effect on gene expression in the stimulated cell. For the STAT6 assay, gene transfected HepG2 cells are treated with 10 ng of IL-4 and again serially diluted PLAG is added (0.01 μg/ml, 0.1 μg/ml, 1 μg/ml, and 10 μg/ml as shown) to see its effect on gene expression in the stimulated cell. The assay is carried out following 12 hours incubation of treated cells.
structure (smiles),measurement,setting,value
"CCCCC/C=C\C/C=C\CCCCCCCC(=O)OC(COC(C)=O)COC(=O)CCCCCCCCCCCCCCC (racemic) [PLAG, 1-palmitoyl-2-linoleoyl-3-acetylglycerol]",ERK1/2 and p38 phosphorylation,[1],down-regulated
same,"decrease of C3 (expressed protein, ELISA)",C3,proportional to the concentration of PLAG
same,Platelet (day 3) Conc,platelets,1072 ± 125.4 k/ul
same,STAT1 phosphorylation,STAT1 [2],No effect
same,"STAT1 expression (transcriptional activity, reporter)",STAT1 [3],no effect
